In PubChem BioAssay (NCI):
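Compound exposure: 48 hours, 5 concentrations, 96-well plates. At the TGI there is no net growth.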

Tests used:
Assay in all cases: NCI anticancer screen, dose series, 48 h
[1] = test system: DLD-1 colon
[2] = test system: DMS 273 small cell lung
[3] = test system: HOP-18 NSCLC
[4] = test system: KM20L2 colon
[5] = test system: LXFL 529 NSCLC
[6] = test system: M19-MEL melanoma
[7] = test system: SK-MEL-28 melanoma
[8] = test system: SK-MEL-5 melanoma
[9] = test system: SNB-78 CNS
[10] = test system: XF 498 CNS
[11] = test system: DMS 114 small cell lung
[12] = test system: RXF-631 renal
[13] = test system: MDA-N

| Structure (SMILES) | TGI [1] [µM] | TGI [2] [µM] | TGI [3] [µM] | TGI [4] [µM] | TGI [5] [µM] | TGI [6] [µM] | TGI [7] [µM] | TGI [8] [µM] | TGI [9] [µM] | TGI [10] [µM] | TGI [11] [µM] | TGI [12] [µM] | TGI [13] [µM] |
| --- | --- | --- | --- | --- | --- | --- | --- | --- | --- | --- | --- | --- | --- |
| CCOC(=O)C(C(=O)OCC)c1ccc([N+](=O)[O-])o1 | 18.6 | 33.4 | 34.2 | 36.8 | 11.2 | 33.2 | 27.1 | 31.5 | 34.8 | 31 | – | – | – |
| O=C1NC(=O)C(C(=O)C(=O)Nc2ccc(Cl)cc2Cl)C(=O)N1 | > 100 | – | – | > 100 | > 100 | > 100 | – | > 100 | > 100 | – | > 100 | > 100 | – |
| O=c1c2ccccc2nc2n1-c1ccccc1SC2 | > 100 | > 100 | – | > 100 | > 100 | > 100 | > 100 | 86.9 | > 100 | 91.3 | > 100 | > 100 | – |
| N#Cc1cc([N+](=O)[O-])ccc1NC(=O)/C(=N\NC(=O)c1ccncc1)C(c1cnc2ccc([N+](=O)[O-])cc2n1)[N+](=O)[O-] (centres undefined) | – | 6.59 | 2.87 | 25.1 | 3.81 | 1.69 | 4.81 | 2.14 | 21.6 | 3.17 | 3.1 | 5.13 | 1.26 |
| Cc1ccc(C(c2c(O)c3ccccc3n(-c3ccccc3)c2=O)c2c(O)c3ccccc3n(-c3ccccc3)c2=O)cc1 | > 100 | > 100 | > 100 | > 100 | > 100 | > 100 | > 100 | > 100 | > 100 | > 100 | > 100 | – | – |
| NC(=O)/C(=N\NC(=O)C[n+]1ccccc1)C1NC(=O)NC1=O (centres undefined) | > 100 | > 100 | > 100 | > 100 | > 100 | > 100 | > 100 | > 100 | > 100 | > 100 | > 100 | > 100 | – |
| C=CCN1COc2c(cc3c4c(cccc24)C(=O)O3)C1 | 66.2 | > 100 | > 100 | > 100 | 35.1 | 37.4 | 57.2 | > 100 | – | 37.8 | 35 | – | – |
